Measured values reported in the CheMixHub viscosity set.

Assay: xn = mol fraction of the nth substance listed

NC(N)=O + O
Details	viscosity [mPa·s]
293.15 K, 100 kPa, x1 = 0.00045	1.018
293.15 K, 100 kPa, x1 = 0.0009	1.027
293.15 K, 100 kPa, x1 = 0.0013	1.041
293.15 K, 101 kPa, x1 = 0.0003382	1.002
293.15 K, 101 kPa, x1 = 0.0005695	1.003
293.15 K, 101 kPa, x1 = 0.0009893	1.003
293.15 K, 101 kPa, x1 = 0.001265	1.004
293.15 K, 101 kPa, x1 = 0.00161	1.004
293.15 K, 101 kPa, x1 = 0.002015	1.005
293.15 K, 101 kPa, x1 = 0.002546	1.006
293.15 K, 101 kPa, x1 = 0.002806	1.006
293.15 K, 101 kPa, x1 = 0.0486	0.872
293.15 K, 101 kPa, x1 = 0.0994	0.991
293.15 K, 101 kPa, x1 = 0.1318	1.087
294.75 K, 101 kPa, x1 = 0.0219	0.9356
294.75 K, 101 kPa, x1 = 0.04201	1.072
294.75 K, 101 kPa, x1 = 0.05343	1.101
294.75 K, 101 kPa, x1 = 0.0565	1.157
298.15 K, 100 kPa, x1 = 0.00045	0.911
298.15 K, 100 kPa, x1 = 0.0009	0.927
298.15 K, 100 kPa, x1 = 0.0013	0.94
298.15 K, 101 kPa, x1 = 0.0003802	0.8909
298.15 K, 101 kPa, x1 = 0.0009168	0.8918
298.15 K, 101 kPa, x1 = 0.001355	0.8925
298.15 K, 101 kPa, x1 = 0.00169	0.893
298.15 K, 101 kPa, x1 = 0.001993	0.8935
298.15 K, 101 kPa, x1 = 0.00247	0.8943
298.15 K, 101 kPa, x1 = 0.00308	0.895
298.15 K, 101 kPa, x1 = 0.003109	0.8953
298.15 K, 101 kPa, x1 = 0.00368	0.8962
298.15 K, 101 kPa, x1 = 0.0259	0.939
298.15 K, 101 kPa, x1 = 0.0389	0.969
298.15 K, 101 kPa, x1 = 0.05204	1.035
298.15 K, 101 kPa, x1 = 0.08275	1.088
298.15 K, 101 kPa, x1 = 0.1302	1.252
298.15 K, 101 kPa, x1 = 0.156	1.348
298.15 K, 101 kPa, x1 = 0.2047	1.561
303.15 K, 100 kPa, x1 = 0.00045	0.824
303.15 K, 100 kPa, x1 = 0.0009	0.839
303.15 K, 100 kPa, x1 = 0.0013	0.849
303.15 K, 101 kPa, x1 = 0.000464	0.798
303.15 K, 101 kPa, x1 = 0.001107	0.799
303.15 K, 101 kPa, x1 = 0.001607	0.7999
303.15 K, 101 kPa, x1 = 0.002024	0.8005
303.15 K, 101 kPa, x1 = 0.002271	0.8009
303.15 K, 101 kPa, x1 = 0.002742	0.8016
303.15 K, 101 kPa, x1 = 0.003158	0.8024
303.15 K, 101 kPa, x1 = 0.003416	0.8028
308.15 K, 100 kPa, x1 = 0.00045	0.744
308.15 K, 100 kPa, x1 = 0.0009	0.755
308.15 K, 100 kPa, x1 = 0.0013	0.77
308.15 K, 101 kPa, x1 = 0.0003775	0.7197
308.15 K, 101 kPa, x1 = 0.0006463	0.7201
308.15 K, 101 kPa, x1 = 0.001149	0.721
308.15 K, 101 kPa, x1 = 0.001425	0.7214
308.15 K, 101 kPa, x1 = 0.001907	0.7223
308.15 K, 101 kPa, x1 = 0.002218	0.7227
308.15 K, 101 kPa, x1 = 0.002872	0.7238
308.15 K, 101 kPa, x1 = 0.003309	0.7246
308.15 K, 101 kPa, x1 = 0.018	0.65
308.15 K, 101.33 kPa, x1 = 0.0177	0.7612
308.15 K, 101.33 kPa, x1 = 0.03479	0.7944
308.15 K, 101.33 kPa, x1 = 0.05127	0.8302
308.15 K, 101.33 kPa, x1 = 0.06723	0.8754
308.15 K, 101.33 kPa, x1 = 0.08263	0.916
308.15 K, 101.33 kPa, x1 = 0.09755	0.9544
308.15 K, 101.33 kPa, x1 = 0.112	1.02
308.15 K, 101.33 kPa, x1 = 0.126	1.049
308.15 K, 101.33 kPa, x1 = 0.1395	1.077
313.15 K, 100 kPa, x1 = 0.00045	0.678
313.15 K, 100 kPa, x1 = 0.0009	0.692
313.15 K, 100 kPa, x1 = 0.0013	0.712
313.15 K, 101.33 kPa, x1 = 0.0177	0.6912
313.15 K, 101.33 kPa, x1 = 0.03479	0.7169
313.15 K, 101.33 kPa, x1 = 0.05127	0.7568
313.15 K, 101.33 kPa, x1 = 0.06723	0.7895
313.15 K, 101.33 kPa, x1 = 0.08263	0.8365
313.15 K, 101.33 kPa, x1 = 0.09755	0.8702
313.15 K, 101.33 kPa, x1 = 0.112	0.914
313.15 K, 101.33 kPa, x1 = 0.126	0.9479
313.15 K, 101.33 kPa, x1 = 0.1395	0.9819
318.15 K, 101 kPa, x1 = 0.018	0.533
318.15 K, 101.33 kPa, x1 = 0.0177	0.6293
318.15 K, 101.33 kPa, x1 = 0.03479	0.6557
318.15 K, 101.33 kPa, x1 = 0.05127	0.6939
318.15 K, 101.33 kPa, x1 = 0.06723	0.7263
318.15 K, 101.33 kPa, x1 = 0.08263	0.7712
318.15 K, 101.33 kPa, x1 = 0.09755	0.7978
318.15 K, 101.33 kPa, x1 = 0.112	0.8423
318.15 K, 101.33 kPa, x1 = 0.126	0.8735
318.15 K, 101.33 kPa, x1 = 0.1395	0.9047
323.15 K, 101.33 kPa, x1 = 0.0177	0.5841
323.15 K, 101.33 kPa, x1 = 0.03479	0.6023
323.15 K, 101.33 kPa, x1 = 0.05127	0.6485
323.15 K, 101.33 kPa, x1 = 0.06723	0.6694
323.15 K, 101.33 kPa, x1 = 0.08263	0.7012
323.15 K, 101.33 kPa, x1 = 0.09755	0.7261
323.15 K, 101.33 kPa, x1 = 0.112	0.7788
323.15 K, 101.33 kPa, x1 = 0.126	0.803
323.15 K, 101.33 kPa, x1 = 0.1395	0.8273
